Reference: patent publication US20080221052A1, “Modulation of Wrn-Mediated Telomere-Initiated Cell Signaling” (priority 2004, published 2008)
{P} = phosphate

Legend:
S91 mouse melanoma cells = test: Melanin content of S91 mouse melanoma cells; type: cell-based; settings: 6 days
Description: FIG. 4 is a bar graph showing the melanin content (in pg/cell) of cells treated with diluent, pTpT or pTspT.
FIG. 5 is a bar graph showing the melanin content (in pg/cell) of cells treated with diluent, 11 mer-1 or 11 mer-1-S.
Cultures of S91 mouse melanoma cells (100,000 cells/38 cm^2) were treated with 100 μM pTpT or phosphorothioate pTpT (pTspT) (FIG. 4) or 40 μM 11 mer-1 or the phosphorothioate 11 mer-1 (11 mer-1-S) (FIG. 5) for 6 days and were then collected, counted and assayed for melanin content.

S91 cells = test: UV-induced melanogenesis in S91 cells (melanin content, OD 475 nm); type: cell-based, mouse; settings: 100 μM, one week
From the text: FIG. 6 is a bar graph showing the melanin content (in pg/cell) of cells that have been sham-treated (no irradiation, no oligonucleotides), or treated with ultraviolet light (UV), or unirradiated but given pTspT, or irradiated with UV and given pTspT.
Duplicate cultures of S91 cells (100,000 cells/39 cm^2) were either sham-irradiated or irradiated with 5 mJ/cm^2 solar-simulated light from a 1 kW xenon arc solar-simulator (XMN 1000-21, Optical Radiation, Azuza, Calif.) metered at 285 5 nm using a research radiometer (model IL1700A, International Light, Newburyport, Mass.). Two sham-irradiated plates were then supplemented with 100 μM pTspT and two irradiated cultures were similarly treated with pTspT. After one week, cells were collected, counted and analyzed for melanin content by dissolving the cell pellets in 1 N NaOH and measuring the optical density at 475 nm. […] However, this response was blocked by the addition of pTspT (FIG. 6). In addition, the constitutive pigmentation of these cells was reduced by the pTspT in the sham-irradiated cultures, similar to the data presented in FIGS. 4 and 5.

Jurkat cells = test: FACS analysis of propidium iodide stained Jurkat cells (S phase, sub-G0/G1 apoptosis); type: cell-based, human
Description: FIGS. 1A-1H show FACS analysis of propidium iodide stained Jurkat cells (immortalized T lymphocytes), treated with diluent (FIGS. 1A and 1E); 40 μM 11 mer-1 pGTTAGGGTTAG (SEQ ID NO: 2) (FIGS. 1B and 1F); 40 μM 11 mer-2 pCTAACCCTAAC (SEQ ID NO: 3) (FIGS. 1C and 11G); 40 μM 11 mer-3 pGATCGATCGAT (SEQ ID NO: 4) (FIGS. 1D and 1H). Jurkat cells were treated with the stated reagents for 48 hours before analysis (FIG. 1A-1D) or 72 hours (FIGS. 1E-1H).
FIGS. 2A-2F are profiles showing the results of fluorescence activated cell sorting, for the following additions to the cells: FIG. 2A, diluent; FIG. 2B, 0.4 μM 11 mer-1; FIG. 2C, 0.4 μM 11 mer-1-S; FIG. 2D, diluent; FIG. 2E, 40 μM 11 mer-1; FIG. 2F, 40 μM 11 mer-1-S.
Oligonucleotides homologous to the telomere overhang repeat sequence (TTAGGG; SEQ ID NO: 1), sequence (11 mer-1: pGTTAGGGTTAG; SEQ ID NO: 2), complementary to this sequence (11 mer-2: pCTAACCCTAAC; SEQ ID NO: 3) and unrelated to the telomere sequence (11 mer-3: pGATCGATCGAT; SEQ ID NO: 4) were added to cultures of Jurkat cells, a line of human T cells reported to undergo apoptosis in response to telomere disruption. Within 48 hours, 50% of the cells treated with 40 μM of SEQ ID NO: 2 had accumulated in the S phase, compared to 25-30% for control cells (p<0.0003, non-paired t-test; see FIGS. 1A-1D), and by 72 hours, 13% of these cells were apoptotic as determined by a sub-G0/G1 DNA content, compared to 2-3% of controls (p<0.007, non-paired t-test; see FIGS. 1E-1H). At 96 hours, 20±3% of the 11 mer-1 treated cells were apoptotic compared with 3-5% of controls (p<0.0001, non-paired t-test). To exclude preferential uptake of the 11 mer-1 as an explanation of its singular effects, Jurkat cells were treated with oligonucleotides labeled on the 3′ end with fluorescein phosphoramidite, then subjected to confocal microscopy and FACS analysis. The fluorescence intensity of the cells was the same after all treatments at 4 hours and 24 hours.
Cultures of Jurkat human T cells were treated with either diluent, 11 mer-1 (SEQ ID NO: 1) or the phosphorothioate 11 mer-1 (11 mer-1-S) for 96 hours, then collected and processed for FACS analysis. Two concentrations of the oligonucleotides were tested, 0.4 μM (FIGS. 2A-2C) and 40 μM (FIGS. 2D-2F).

[1] = test system: p53, E2F1 transcription factor; test: Western analysis of p53 and E2F1 in Jurkat cells; type: cell-based, human; settings: by 24 hours after addition
p53 serine 37 = test: Western analysis of p53 phosphorylated on serine 37 in newborn fibroblasts; type: cell-based; settings: 40 μM
[2] = test system: keratinocyte cell line (SSC12F); test: S-phase arrest by FACS in keratinocyte cell line; type: cell-based; settings: 48 hours, 11 mer-1 alone (10 μM per FIG. 3B); diluent control 26%
Description: FIGS. 3A-3G are profiles showing the results of fluorescence activated cell sorting, for the following additions to the cells: FIG. 3A, diluent; FIG. 3B, 10 μM 11 mer-1; FIG. 3C, 10 μM 11 mer-1 and 1 μM 11 mer-1-S; FIG. 3D, 10 μM 11 mer-1 and 5 μM 11 mer-1-S; FIG. 3E, 10 μM 11 mer-1 and 10 μM 11 mer-1-S; FIG. 3F, 20 μM 1 mer-1-S; FIG. 3G, 10 μM 11 mer-1-S.
Forty-three percent of the cells were in the S phase, compared to 26% of the control, diluent-treated cells.

WRN = molecular target: T1, WRN (Homo sapiens, UniProt Q14191); test: WRN siRNA knock-down and T-oligo response, western blot in normal neonatal fibroblasts; type: cell-based; settings: 40 μM T-oligo, 24 or 48 hours, WRN siRNA-treated cells
T1 construct: endogenous in cells; host or cells: normal neonatal fibroblasts
T1 sequence (Q14191 whole entry): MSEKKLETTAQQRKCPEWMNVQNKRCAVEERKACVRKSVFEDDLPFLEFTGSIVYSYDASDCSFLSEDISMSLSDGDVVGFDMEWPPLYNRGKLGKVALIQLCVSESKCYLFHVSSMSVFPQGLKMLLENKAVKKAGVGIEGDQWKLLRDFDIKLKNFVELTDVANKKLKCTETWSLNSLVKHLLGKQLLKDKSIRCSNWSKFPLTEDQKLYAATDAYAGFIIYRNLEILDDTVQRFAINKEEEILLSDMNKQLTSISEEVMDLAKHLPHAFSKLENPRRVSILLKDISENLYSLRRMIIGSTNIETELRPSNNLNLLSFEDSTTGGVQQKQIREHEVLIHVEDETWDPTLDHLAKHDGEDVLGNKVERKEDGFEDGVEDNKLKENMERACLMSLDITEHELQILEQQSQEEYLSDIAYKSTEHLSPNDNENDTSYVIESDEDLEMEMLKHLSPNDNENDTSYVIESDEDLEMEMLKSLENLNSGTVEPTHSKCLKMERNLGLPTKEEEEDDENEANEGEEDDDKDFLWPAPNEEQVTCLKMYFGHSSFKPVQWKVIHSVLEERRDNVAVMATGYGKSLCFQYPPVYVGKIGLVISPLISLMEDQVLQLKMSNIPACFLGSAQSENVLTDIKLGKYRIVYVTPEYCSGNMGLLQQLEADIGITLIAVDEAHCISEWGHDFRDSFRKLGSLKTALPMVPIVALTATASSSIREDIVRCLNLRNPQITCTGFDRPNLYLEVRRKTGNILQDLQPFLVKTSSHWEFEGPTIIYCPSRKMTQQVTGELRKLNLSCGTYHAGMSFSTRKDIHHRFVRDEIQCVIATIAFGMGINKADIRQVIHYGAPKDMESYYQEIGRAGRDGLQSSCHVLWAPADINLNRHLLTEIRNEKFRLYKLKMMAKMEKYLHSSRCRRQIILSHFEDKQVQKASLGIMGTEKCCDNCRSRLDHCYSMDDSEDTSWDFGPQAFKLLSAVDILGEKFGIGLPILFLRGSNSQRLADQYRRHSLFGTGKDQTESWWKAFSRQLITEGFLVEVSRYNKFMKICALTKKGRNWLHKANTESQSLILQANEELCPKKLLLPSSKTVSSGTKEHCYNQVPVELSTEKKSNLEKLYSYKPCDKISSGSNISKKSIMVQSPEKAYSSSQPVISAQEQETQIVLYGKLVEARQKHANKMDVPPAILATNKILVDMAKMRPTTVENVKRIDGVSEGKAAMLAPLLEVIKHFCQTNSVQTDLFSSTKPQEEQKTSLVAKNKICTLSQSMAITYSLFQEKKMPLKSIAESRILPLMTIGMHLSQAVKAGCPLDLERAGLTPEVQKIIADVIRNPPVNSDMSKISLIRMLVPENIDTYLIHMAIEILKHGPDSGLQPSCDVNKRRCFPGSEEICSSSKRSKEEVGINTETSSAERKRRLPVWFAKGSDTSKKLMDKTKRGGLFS
Description: Protein level of WRN on the day of T-oligo treatment is indicated at “0 Hrs”. T-oligo (40 μM, T) or diluent (D) were added and cells collected after 24 or 48 hours for western analysis. Control fibroblasts were either sham (IR, −) or irradiated with 10 Gy IR (IR, +) and collected after one hour. The western blot was probed with antibodies, recognizing WRN, p53 phosphoserine 15 or phospho H2AX.
Normal neonatal fibroblasts were treated on 2 consecutive days with 50 ρmol of WRN siRNA or […] of siRNA directed against the control green fluorescent protein (GFP). One day after the second siRNA treatment, representative cultures were collected for western blot analysis to assess the effectiveness of the WRN siRNA in eliminating the protein. Also at this time, duplicate cultures of WRN siRNA-treated or GFP siRNA-treated cultures were given either 40 μM T-oligo (11 mer-1; SEQ ID NO: 2) or an equal amount of diluent. Cells from all conditions were collected one or two days after the addition of T-oligo or diluent and were analyzed by western blot for p53 phosphorylation on serine 15 and phosphorylation of histone H2AX, both well-documented DNA damage responses (Lambert et al., 1998, J Biol Chem 273, 33048-53; Burma et al., 2001, J Biol Chem 276, 42462-7). Also as controls, cell lysates from cells sham-irradiated or irradiated with 10 Gy ionizing radiation (1R) were included. […]

DNA-PKCS = test: Western blot with antibody against ATM phosphoserine 1981 in normal newborn fibroblasts; type: cell-based; settings: 40 μM, 4-48 hours
Description: The positions of ATM and DNA-PKCS are indicated. Sham and irradiated (10 Gy IR) fibroblasts were included as controls.
Normal newborn fibroblasts were treated with 40 μM T-oligo or an equal volume of diluent for 4, 6, 8, 16, 24 or 48 hours then collected and analyzed by Western blot using an antibody against ATM phosphoserine 1981. […] The phosphorylated protein was shown in subsequent experiments to co-migrate with the catalytic subunit of ATM-related DNA-dependent protein kinase (DNA-PKCS), which would reasonably be expected to bind an antibody raised against the highly homologous ATM protein.

With pTpT the “stimulation of melanogenesis (melanin content)” value (“stimulation of melanogenesis” for short) (S91 mouse melanoma cells; 100 μM) was “stimulated melanogenesis”.
pTspT was tested, and the constitutive pigmentation (S91 mouse melanoma cells; 100 μM) was “reduced the constitutive pigmentation”, the “stimulation of melanogenesis” value (S91 mouse melanoma cells; 100 μM) was “did not” and the “UV-induced doubling of melanin content” value (S91 cells; 5 mJ/cm^2 solar-simulated light) was “blocked”. The constitutive pigmentation (S91 cells; sham-irradiated cultures) was “reduced”.
In the case of “pGTTAGGGTTAG (DNA, 5' {P}, backbone not given here) [11 mer-1]”, the “effect on exponentially growing cell cycle profile” value (Jurkat cells; 0.4 μM, 96 hours) is reported as “neither of the oligonucleotides affected”, the “apoptotic cells (sub-G0/G1 DNA content)” value (Jurkat cells; 40 μM, 72 hours, controls 2-3%) is reported as 13% and the “apoptosis (sub-G0/G1 peak)” value (Jurkat cells; 40 μM, 96 hours) is reported as “induced extensive apoptosis”. For the same substance, the “cells accumulated in the S phase” value (Jurkat cells; 40 μM, within 48 hours, control cells 25-30%) was 50%, the apoptotic cells (Jurkat cells; 96 hours, controls 3-5%) was 20±3% and the “level of the E2F1 transcription factor” value [1] was “concomitant increase”. For the same substance, the p53 level [1] was “increase”, the “stimulation of melanogenesis” value (S91 mouse melanoma cells; 40 μM) was “stimulated melanogenesis” and the “phosphorylation of p53 serine 37” value (p53 serine 37) was “phosphorylated”. The “cells in the S phase” value [2] was “Forty-three”, the “ability to induce phosphorylation of H2AX after WRN knock-down” value (WRN) was “dramatically reduced” and the “ability to induce phosphorylation of p53 (serine 15) after WRN knock-down” value (WRN) was “dramatically reduced”. The “phosphorylation of 450 kDa protein (DNA-PKCS)” value (DNA-PKCS) was “leads to phosphorylation”.
